The results in this text go back to US20100292205A1, “Pyrimidone Compounds As GSK-3 Inhibitors” (PFIZER INC., priority 2006, published 2010).

The inhibition is the drop in the measured response relative to a control, in per cent. What is called IC50 is the midpoint of a concentration-inhibition curve.

T1 sequence (P49841 whole entry): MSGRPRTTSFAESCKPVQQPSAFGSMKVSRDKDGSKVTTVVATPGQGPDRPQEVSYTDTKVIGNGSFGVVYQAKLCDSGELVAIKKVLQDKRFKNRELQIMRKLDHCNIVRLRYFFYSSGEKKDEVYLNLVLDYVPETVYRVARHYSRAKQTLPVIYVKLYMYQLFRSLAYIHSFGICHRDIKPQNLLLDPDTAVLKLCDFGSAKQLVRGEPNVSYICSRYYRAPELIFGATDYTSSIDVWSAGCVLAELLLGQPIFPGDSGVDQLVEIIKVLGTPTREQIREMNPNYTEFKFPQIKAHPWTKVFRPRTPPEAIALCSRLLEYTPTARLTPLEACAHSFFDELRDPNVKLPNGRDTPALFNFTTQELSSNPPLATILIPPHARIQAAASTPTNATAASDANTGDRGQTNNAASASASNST

One assay concerns the target T1, Recombinant human GSK3β (Homo sapiens, UniProt P49841).
T1 construct: His-tag; made in house; host or cells: Sf9 insect cells / baculovirus
Put plainly: GSK-3β (Glycogen Synthase Kinase) cell free enzyme assay. The class given is biochemical. To be noted: 1 μM; Examples 157-199. A digest of the protocol:
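Recombinant human GSK3β, expressed in SF9/baculovirus cells and His-tag purified on Ni-NTA Superflow, was preincubated with test agent for 30 minutes at room temperature. Substrate mix was then added to start the reaction in 8 mM MOPS (pH 7.0), 10 mM magnesium acetate, 0.2 mM EDTA, 1 mM DTT, 2 uM cold ATP, 0.025 uCi/well [33P]ATP (120 uL) and 1.0 uM biotinylated peptide. Reactions ran at RT for 60 min.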
On to `Cn1c(N2[C@@H]3CC[C@H]2CN(S(=O)(=O)c2ccccc2)C3)nc(-c2ccncc2)cc1=O` [Example 169, 3-Methyl-2-[(1R,5S)-3-(phenylsulfonyl)-38-diazabicyclo[3.2.1]oct-8-yl]-6-pyridin-4-ylpyrimidin-4(3H)-one], for which the “Percent inhibition at 1 μM” value is 92%.
On to `CN(c1nc(-c2ccncc2)cc(=O)n1C)C1CCCN(S(=O)(=O)c2ccccc2)CC1` (stereo not shown) [Example 182, 3-Methyl-2-{methyl[1-(phenylsulfonyl)azepan-4-yl]amino}-6-pyridin-4-ylpyrimidin-4(3H)-one], for which the “Percent inhibition at 1 μM” value was 96%.

Staying with this assay, now noted: 1 μM; Examples 157-199; read-out: Percent inhibition at 1 μM.
Consider `Cn1c(N[C@H]2[C@@H]3CN(S(C)(=O)=O)C[C@@H]32)nc(-c2ccncc2)cc1=O` [Example 157, 3-Methyl-2-{[(1R,5S,6s)-3-(methylsulfonyl)-3-azabicyclo[3.1.0]hex-6-yl]amino}-6-pyridin-4-ylpyrimidin-4(3H)-one], for which the inhibition at 1 µM was 61%.
As to `Cn1c(N[C@H]2CN(S(C)(=O)=O)C[C@@H]2F)nc(-c2ccncc2)cc1=O` [Example 158, 2-{[(3S,4S)-4-Fluoro-1-(methylsulfonyl)pyrrolidin-3-yl]amino}-3-methyl-6-pyridin-4-ylpyrimidin-4(3H)-one], the inhibition at 1 µM was determined as 74%.
Still for that read-out and setting: with `CN(c1nc(-c2ccncc2)cc(=O)n1C)C1CCCN(S(C)(=O)=O)CC1` (stereo not shown) [Example 159, 3-Methyl-2-{methyl[1-(methylsulfonyl)azepan-4-yl]amino}-6-pyridin-4-ylpyrimidin-4(3H)-one] the figure was 100%; with `CN(c1nc(-c2ccncc2)cc(=O)n1C)C1CCN(S(C)(=O)=O)C1` (stereo not shown) [Example 160, 3-Methyl-2-(methyl[1-(methylsulfonyl)pyrrolidin-3-yl]amino}-6-pyridin-4-ylpyrimidin-4(3H)-one], 79%; with `Cn1c(N[C@@H]2CN(S(C)(=O)=O)C[C@@H]2F)nc(-c2ccncc2)cc1=O` [Example 161, 2-{[(3R,4S)-4-Fluoro-1-(methylsulfonyl)pyrrolidin-3-yl]amino}-3-methyl-6-pyridin-4-ylpyrimidin-4(3H)-one], 93%.
With `CN(c1nc(-c2ccncc2)cc(=O)n1C)[C@@H]1CC[C@H]2N(S(C)(=O)=O)CC[C@@]2(C)C1` [Example 162, 3-Methyl-2-{methyl[(3a,S5,R7,aR)-3a-methyl-1-(methylsulfonyl)octahydro-1H-indo-5-yl]amino}-6-pyridin-4-ylpyrimidin-4(3H)-one], the inhibition at 1 µM amounted to 84%.
For the molecule `CCN(c1nc(-c2ccncc2)cc(=O)n1C)C1CCCN(S(C)(=O)=O)CC1` (stereo not shown) [Example 163, 2-{Ethyl[1-(methylsulfonyl)azepan-4-yl]amino}-3-methyl-6-pyridin-4-ylpyrimidin-4(3H)-one], the inhibition at 1 µM came to 100%.
On to `CCN(c1nc(-c2ccncc2)cc(=O)n1C)C1CCCN(S(C)(=O)=O)C1` (stereo not shown) [Example 164, 2-{Ethyl[1-(methylsulfonyl)piperidin-3-yl]amino)-3-methyl-6-pyridin-4-ylpyrimidin-4(3H)-one], for which the inhibition at 1 µM came out at 82%.
Take `CCN(c1nc(-c2ccncc2)cc(=O)n1C)C1CCN(S(C)(=O)=O)CC1` [Example 165, 2-{Ethyl[1-(methylsulfonyl)piperidin-4-yl]amino}-3-methyl-6-pyridin-4-ylpyrimidin-4(3H)-one]: the inhibition at 1 µM came out at 80%.
Same read-out and setting: with `CCN(C[C@H]1CCCN1S(C)(=O)=O)c1nc(-c2ccncc2)cc(=O)n1C` [Example 166, 2-(Ethyl{[(2R)-1-(methylsulfonyl)pyrrolidin-2-yl]methyl}amino)-3-methyl-6-pyridin-4-ylpyrimidin-4(3H)-one] the figure was 74%; with `Cn1c(NC[C@H]2CCCN2S(C)(=O)=O)nc(-c2ccncc2)cc1=O` [Example 168, 3-Methyl-2-({[(2R)-1-(methylsulfonyl)pyrrolidin-2-yl]methyl}amino)-6-pyridin-4-ylpyrimidin-4(3H)-one], 78%.
On the same count and under the same terms, to `Cn1c(NC2CCCN(S(=O)(=O)c3ccccc3)CC2)nc(-c2ccncc2)cc1=O` (stereo not shown) [Example 170, 3-Methyl-2-{[1-(phenylsulfonyl)azepan-4-yl]amino}-6-pyridin-4-ylpyrimidin-4(3H)-one] belongs 99%.
Still for that read-out and setting: to `Cn1c(NC2CN(S(=O)(=O)c3ccccc3)C2)nc(-c2ccncc2)cc1=O` [Example 171, 3-Methyl-2-{[1-(phenylsulfonyl)azetidin-3-yl]amino}-6-pyridin-4-ylpyrimidin-4(3H)-one] belongs 61%; to `Cn1c(N2CC[C@@H]3CN(S(=O)(=O)c4ccccc4)C[C@@H]32)nc(-c2ccncc2)cc1=O` [Example 172, 3-Methyl-2-[(3a,R6,aR)-5-(phenylsulfonyl)hexahydro-pyrrolo[34-b]pyrrol-1(2H)-yl]-6-pyridin-4-ylpyrimidin-4(3H)-one], 81%; to `Cn1c(NC2CCCCN(S(=O)(=O)c3ccccc3)C2)nc(-c2ccncc2)cc1=O` (stereo not shown) [Example 173, 3-Methyl-2-{[1-(phenylsulfonyl)azepan-3-yl]amino}-6-pyridin-4-ylpyrimidin-4(3H)-one], 51%.
Take `Cn1c(NC2CCN(S(=O)(=O)c3ccccc3)C2)nc(-c2ccncc2)cc1=O` (stereo not shown) [Example 174, 3-Methyl-2-{[1-(phenylsulfonyl)pyrrolidin-3-yl]amino}-6-pyridin-4-ylpyrimidin-4(3H)-one]: the inhibition at 1 µM is 95%.
On the same count and under the same terms, to `Cn1c(NC2CCN(S(=O)(=O)c3ccccc3)CC2)nc(-c2ccncc2)cc1=O` [Example 175, 3-Methyl-2-{[1-(phenylsulfonyl)piperidin-4-yl]amino}-6-pyridin-4-ylpyrimidin-4(3H)-one] belongs 49%; to `Cn1c(N[C@H]2CN(S(=O)(=O)c3ccccc3)C[C@@H]2F)nc(-c2ccncc2)cc1=O` [Example 176, 2-{[(3S,4S)-4-Fluoro-1-(phenylsulfonyl)pyrrolidin-3-yl]amino}-3-methy!-6-pyridin-4-ylpyrimidin-4(3H)-one], 96%; to `Cn1c(N[C@H]2[C@@H]3CN(S(=O)(=O)c4ccccc4)C[C@@H]32)nc(-c2ccncc2)cc1=O` [Example 177, 3-Methyl-2-{[(1R,5S,6s)-3-(phenylsulfonyl)-3-azabicyclo[3.1.0]hex-6-yl]amino}-6-pyridin-4-ylpyrimidin-4(3H)-one], 97%.
On the same count and under the same terms, with `CN(c1nc(-c2ccncc2)cc(=O)n1C)[C@H]1CC[C@H]2N(S(=O)(=O)c3ccccc3)CC[C@@]2(C)C1` [Example 178, 3-Methyl-2-{methyl[(3a,S5,S7,aR)-3a-methyl-1-(phenylsulfonyl)octahydro-1H-indol-5-yl]amino}-6-pyridin-4-ylpyrimidin-4(3H)-one] the figure was 100%.
Still for that read-out and setting: to `Cn1c(NC2CCCN(S(=O)(=O)c3ccccc3)C2)nc(-c2ccncc2)cc1=O` (stereo not shown) [Example 179, 3-Methy-2-{[1-(phenylsulfonyl)piperidin-3-yl]amino}-6-pyridin-4-ylpyrimidin-4(3H)-one] belongs 93%; to `CN(c1nc(-c2ccncc2)cc(=O)n1C)C1CCN(S(=O)(=O)c2ccccc2)C1` (stereo not shown) [Example 180, 3-Methyl-2-{methyl[1-(phenylsulfonyl)pyrrolidin-3-yl]amino}-6-pyridin-4-ylpyrimidin-4(3H)-one], 93%.
Take `CN(c1nc(-c2ccncc2)cc(=O)n1C)C1CCCN(S(=O)(=O)c2ccccc2)CC1` (stereo not shown) [Example 181, 3-Methyl-2-{methyl[1-(phenylsulfonyl)azepan-4-yl]amino}-6-pyridin-4-ylpyrimidin-4(3H)-one]: the inhibition at 1 µM amounted to 96%.
Same read-out and setting: to `CN(c1nc(-c2ccncc2)cc(=O)n1C)[C@@H]1CC[C@H]2N(S(=O)(=O)c3ccccc3)CC[C@@]2(C)C1` [Example 183, 3-Methyl-2-{methyl[(3,aS5,R7,aR)-3a-methyl-1-(phenylsulfonyl)octahydro-1H-indol-5-yl]amino}-6-pyridin-4-ylpyrimidin-4(3H)-one] belongs 100%.

The assay is the same for the next values; noted with them: cell free enzyme assay; Examples 62-155.
For the molecule `CN(c1nc(-c2ccncc2F)cc(=O)n1C)[C@H]1[C@@H]2CN(C(=O)c3ccccc3)C[C@@H]21` [Example 150, 2-{[(1R,5S,6s)-3-Benzoyl-3-azabicyclo[3.1.0]hex-6-yl](methyl)amino}-6-(3-fluoropyridin-4-yl)-3-methylpyrimidin-4(3H)-one], the IC50 came out at 1.51 nM.
Same read-out and setting: with `COc1ccc(C(=O)N2C[C@@H]3[C@H](C2)[C@H]3N(C)c2nc(-c3ccncc3F)cc(=O)n2C)c(OC)c1` [Example 151, 2-{[(1R,5S,6s)-3-(2,4-Dimethoxybenzoyl)-3-azabicyclo[3.1.0]hex-6-yl](methyl)amino}-6-(3-fluoropyridin-4-yl)-3-methylpyrimidin-4(3H)-one] the figure was 1.22 nM.
For the molecule `CN(c1nc(-c2ccncc2F)cc(=O)n1C)[C@H]1[C@@H]2CN(C(=O)c3ccc(F)c(F)c3)C[C@@H]21` [Example 153, 2-{[(1R,5S,6s)-3-(3,4-Difluorobenzoyl)-3-azabicyclo[3.1.0]hex-6-yl](methyl)amino}-6-(3-fluoropyridin-4-yl)-3-methylpyrimidin-4(3H)-one], the IC50 stood at 7.23 nM.
On the same count and under the same terms, to `CN(c1nc(-c2ccncc2F)cc(=O)n1C)[C@H]1[C@@H]2CN(C(=O)c3ccc(C(F)(F)F)nc3)C[C@@H]21` [Example 154, 6-(3-Fluoropyridin-4-yl)-3-methyl-2-{methyl[(1R,5S,6s)-3-{[6-(trifluoromethyl)pyridin-3-yl]carbonyl}-3-azabicyclo[3.1.0]hex-6-yl]amino}pyrimidin-4(3H)-one] belongs 26.4 nM; to `Cc1c(C(=O)N2C[C@@H]3[C@H](C2)[C@H]3N(C)c2nc(-c3ccncc3F)cc(=O)n2C)cnn1-c1ccccc1` [Example 155, 6-(3-Fluoropyridin-4-yl)-3-methyl-2-(methyl{(1R,5S,6s)-3-[(5-methyl-1-phenyl-1H-pyrazol-4-yl)carbonyl]-3-azabicyclo[3.1.0]hex-6-yl}amino)pyrimidin-4(3H)-one], 102 nM.
